Measurements: patent publication US8143290B2, “Chemical compounds 572” (AstraZeneca AB, priority 2006, dated 2012)
Counter-ions that a name gives are not always drawn.

Target: T1, recombinant human GR (Homo sapiens, UniProt P04150)
T1 construct: purchased Panvera/Invitrogen P2812 (kit P2893)
T1 sequence (P04150 1-777): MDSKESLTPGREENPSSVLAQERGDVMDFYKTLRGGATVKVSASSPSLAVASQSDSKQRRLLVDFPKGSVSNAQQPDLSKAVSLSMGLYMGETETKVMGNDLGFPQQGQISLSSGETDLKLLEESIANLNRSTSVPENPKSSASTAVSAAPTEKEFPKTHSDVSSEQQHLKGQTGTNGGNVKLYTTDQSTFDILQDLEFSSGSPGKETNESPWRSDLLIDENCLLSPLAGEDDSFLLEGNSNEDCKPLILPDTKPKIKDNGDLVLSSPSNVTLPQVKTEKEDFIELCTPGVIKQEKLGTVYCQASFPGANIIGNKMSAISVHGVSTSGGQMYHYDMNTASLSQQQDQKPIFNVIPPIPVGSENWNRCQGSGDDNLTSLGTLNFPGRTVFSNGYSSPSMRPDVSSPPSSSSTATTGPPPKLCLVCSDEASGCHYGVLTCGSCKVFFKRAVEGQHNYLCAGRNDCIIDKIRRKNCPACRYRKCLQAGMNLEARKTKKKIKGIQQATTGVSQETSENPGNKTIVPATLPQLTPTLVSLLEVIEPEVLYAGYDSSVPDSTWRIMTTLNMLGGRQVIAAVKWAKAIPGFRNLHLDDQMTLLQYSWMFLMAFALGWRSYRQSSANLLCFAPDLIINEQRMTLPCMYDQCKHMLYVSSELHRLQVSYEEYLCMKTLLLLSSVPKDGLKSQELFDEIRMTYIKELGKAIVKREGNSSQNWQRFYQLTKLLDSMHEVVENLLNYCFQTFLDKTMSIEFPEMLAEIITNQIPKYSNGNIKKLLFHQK
Assay: Human Glucocorticoid Receptor (GR) Assay, fluorescence polarization
Assay type: binding
Settings: GS Red tracer, incubated 2 h at r.t., XLfit model 205, read-out: GRhuFL_FP_v2 Mean IC50
Procedure: Human Glucocorticoid Receptor (GR) Assay
The assay is based on a commercial kit from Panvera/Invitrogen (Part number P2893). The assay technology is fluorescence polarization. […] The GR and Stabilizing Peptide reagents are stored at −70° C. while the GS Red is stored at −20° C. Also included in the kit are 1M DTT (Panvera, Part number P2325, stored at −20° C.) and GR Screening buffer 10× (Panvera, Part number P2814, stored at −70° C. initially but once thawed stored at r.t.). Avoid repeated freeze/thaws for all reagents. The GR Screening buffer 10× comprises 100 mM potassium phosphate, 200 mM sodium molybdate, 1 mM EDTA and 20% DMSO.
0% control was 100% DMSO and 100% control was […] Dexamethasone. Background solution (8 μL; assay buffer 10×, Stabilizing Peptide, DTT and ice cold MQ water) was added to the background wells. GS Red solution (7 μL; assay buffer 10×, Stabilizing Peptide, DTT, GS Red and ice cold water) was added to all wells except background wells. GR solution (7 μL; assay buffer 10×, Stabilizing Peptide, DTT, GR and ice cold water) was added to all wells. The plate was sealed and incubated in a dark at r.t. for 2 h.

Row | SMILES | IC50 [nM]
1 | CCC(=O)N[C@@H](C)[C@H](Oc1ccc2c(cnn2-c2ccc(F)cc2)c1)c1ccc(C(F)(F)F)cc1 [Example 61, N-[(1R,2S)-1-[1-(4-fluorophenyl)indazol-5-yl]oxy-1-[4-(trifluoromethyl)phenyl]propan-2-yl]propanamide] | 3.3
2 | COCC(=O)N[C@@H](C)[C@H](Oc1ccc2c(cnn2-c2ccc(F)cc2)c1)c1ccc(C)c(C)c1 [Example 257, N-[(1R,2S)-1-(3,4-dimethylphenyl)-1-[1-(4-fluorophenyl)indazol-5-yl]oxy-propan-2-yl]-2-methoxy-acetamide] | 13
3 | Cc1cnc(C(=O)N[C@@H](C)[C@H](Oc2ccc3c(cnn3-c3ccc(F)cc3)c2)c2ccc3c(c2)OCO3)s1 [Example 210, N-[(1R,2S)-1-benzo[1,3]dioxol-5-yl-1-[1-(4-fluorophenyl)indazol-5-yl]oxy-propan-2-yl]-5-methyl-1,3-thiazole-2-carboxamide] | 5.2
4 | CSc1ccc([C@@H](Oc2ccc3c(cnn3-c3ccc(F)cc3)c2)[C@H](C)NC(=O)CO)cc1 [Example 11, N-[(1R,2S)-1-[1-(4-fluorophenyl)indazol-5-yl]oxy-1-(4-methylsulfanylphenyl)propan-2-yl]-2-hydroxy-acetamide] | 2.1
5 | COc1cccc([C@@H](Oc2ccc3c(cnn3-c3ccc(F)cc3)c2)[C@H](C)NC(=O)[C@H]2CCCN2)c1 [Example 304, (R)-N-((1R,2S)-1-(1-(4-fluorophenyl)-1H-indazol-5-yloxy)-1-(3-methoxyphenyl)propan-2-yl)pyrrolidine-2-carboxamide trifluoroacetic acid salt] | 7.5
6 | C[C@H](NC(=O)C(F)(F)F)[C@H](Oc1cc2cnn(-c3ccc(F)cc3)c2cc1Cl)c1ccc(F)cc1 (racemic) [Example 99, N-[(1RS,2SR)-1-[6-chloro-1-(4-fluorophenyl)indazol-5-yl]oxy-1-(4-fluorophenyl)propan-2-yl]-2,2,2-trifluoro-acetamide] | 3.8
7 | COc1cccc([C@@H](Oc2ccc3c(cnn3-c3ccc(F)cc3)c2)[C@H](C)NC(=O)c2cc3ccccc3s2)c1 [Example 296, N-[(1R,2S)-1-[1-(4-fluorophenyl)indazol-5-yl]oxy-1-(3-methoxyphenyl)propan-2-yl]benzothiophene-2-carboxamide] | 4
8 | COc1cccc([C@@H](Oc2cc3cnn(-c4ccc(F)cc4)c3cc2C)[C@H](C)NC(=O)C(C)(C)C)c1 [Example 66, N-[(1R,2S)-1-[1-(4-Fluorophenyl)-6-methyl-indazol-5-yl]oxy-1-(3-methoxyphenyl)propan-2-yl]-2,2-dimethyl-propanamide] | 4.2
9 | COc1cccc([C@@H](Oc2ccc3c(cnn3-c3ccc(F)cc3)c2)[C@H](C)N2C(=O)CNC2=O)c1 [Example 271, 3-[(1R,2S)-1-[1-(4-fluorophenyl)indazol-5-yl]oxy-1-(3-methoxyphenyl)propan-2-yl]imidazolidine-2,4-dione] | 21
10 | C[C@H](NC(=O)C(F)(F)F)[C@H](Sc1ccc2c(cnn2-c2ccc(F)cc2)c1)c1ccccc1 [Example 103, 2,2,2-trifluoro-N-((1R,2S)-1-(1-(4-fluorophenyl)-1H-indazol-5-ylthio)-1-phenylpropan-2-yl)acetamide] | 2.6
11 | C[C@H](NC(=O)C(C)(C)C)[C@H](Oc1ccc2c(cnn2-c2ccc(F)cc2)c1)c1cccc(F)c1 [Example 174, N-[(1R,2S)-1-(3-fluorophenyl)-1-[1-(4-fluorophenyl)indazol-5-yl]oxy-propan-2-yl]-2,2-dimethyl-propanamide] | 4.1
12 | C[C@H](NC(=O)C(F)(F)F)[C@@H](COc1ccccc1)Oc1ccc2c(cnn2-c2ccc(F)cc2)c1 (single isomer, unassigned) [Example 68, 2,2,2-Trifluoro-N-[(2S*,3S*)-3-[1-(4-fluorophenyl)indazol-5-yl]oxy-4-phenoxy-butan-2-yl]acetamide] | 1.7
13 | C[C@H](NC(=O)C(F)(F)F)[C@H](Oc1ccc2c(cnn2-c2cccc(CN(C)C)c2)c1)c1ccccc1 [Example 146, N-((1R,2S)-1-(1-(3-((dimethylamino)methyl)phenyl)-1H-indazol-5-yloxy)-1-phenylpropan-2-yl)-2,2,2-trifluoroacetamide] | 78
14 | C[C@H](NC(=O)C(F)(F)F)[C@H](Oc1ccc2c(cnn2-c2cccc(CN3CCOCC3)c2)c1)c1ccccc1 [Example 145, 2,2,2-trifluoro-N-((1R,2S)-1-(1-(3-(morpholinomethyl)phenyl)-1H-indazol-5-yloxy)-1-phenylpropan-2-yl)acetamide] | 5.5
15 | Cc1ccc([C@@H](Oc2ccc3c(cnn3-c3ccc(F)cc3)c2)[C@H](C)NC(=O)C2(C)CC2)cc1F [Example 213, N-[(1R,2S)-1-(3-fluoro-4-methyl-phenyl)-1-[1-(4-fluorophenyl)indazol-5-yl]oxy-propan-2-yl]-1-methyl-cyclopropane-1-carboxamide] | 4.4
16 | COc1cccc([C@@H](Oc2ccc3c(cnn3-c3ccc(F)cc3)c2)[C@H](C)NC(=O)c2cc(C#N)cs2)c1 [Example 275, 4-cyano-N-[(1R,2S)-1-[1-(4-fluorophenyl)indazol-5-yl]oxy-1-(3-methoxyphenyl)propan-2-yl]thiophene-2-carboxamide] | 4
17 | Cc1cnc(C(=O)N[C@@H](C)[C@H](Oc2ccc3c(cnn3-c3ccc(F)cc3)c2)c2ccc(C(C)(C)C)cc2)s1 [Example 208, N-[(1R,2S)-1-[1-(4-fluorophenyl)indazol-5-yl]oxy-1-(4-tert-butylphenyl)propan-2-yl]-5-methyl-1,3-thiazole-2-carboxamide] | 8.2
18 | COCC(=O)N[C@@H](CC(C)C)[C@H](Oc1ccc2c(cnn2-c2ccc(F)cc2)c1)c1cccc(F)c1 [Example 109, N-{(1S)-1-[(R)-(3-Fluorophenyl)-{[1-(4-fluorophenyl)-1H-indazole-5-yl]oxy}methyl]-3-methyl-butyl}-2-methoxyacetamide] | 23
19 | Cc1cnc(C(=O)N[C@@H](C)[C@H](Oc2ccc3c(cnn3-c3ccc(F)cc3)c2)c2ccc(F)cc2C)s1 [Example 200, N-[(1R,2S)-1-(4-fluoro-2-methyl-phenyl)-1-[1-(4-fluorophenyl)indazol-5-yl]oxy-propan-2-yl]-5-methyl-1,3-thiazole-2-carboxamide] | 4.6
20 | COc1cccc([C@@H](Oc2ccc3c(cnn3-c3ccc(F)cc3)c2)[C@H](C)NC(=O)c2nc3ccccc3[nH]2)c1 [Example 294, N-[(1R,2S)-1-[1-(4-fluorophenyl)indazol-5-yl]oxy-1-(3-methoxyphenyl)propan-2-yl]-1H-benzoimidazole-2-carboxamide] | 4.1
21 | COc1ccc(F)cc1[C@@H](Oc1ccc2c(cnn2-c2ccc(F)cc2)c1)[C@H](C)NC(=O)c1ncc(C)s1 [Example 202, N-[(1R,2S)-1-(5-fluoro-2-methoxy-phenyl)-1-[1-(4-fluorophenyl)indazol-5-yl]oxy-propan-2-yl]-5-methyl-1,3-thiazole-2-carboxamide] | 5.3
22 | C[C@H](NC(=O)C(C)(F)F)[C@H](Oc1ccc2c(cnn2-c2ccc(F)cc2)c1)c1cc(F)cc(Cl)c1 [Example 238, N-[(1R,2S)-1-(3-chloro-5-fluoro-phenyl)-1-[1-(4-fluorophenyl)indazol-5-yl]oxy-propan-2-yl]-2,2-difluoro-propanamide] | 6.8
23 | COc1cccc([C@@H](Oc2ccc3c(cnn3-c3ccc(F)cc3)c2)[C@H](C)NC(=O)c2ccc(C(F)(F)F)cc2)c1 [Example 83, N-((1R,2S)-1-(1-(4-fluorophenyl)-1H-indazol-5-yloxy)-1-(3-methoxyphenyl)propan-2-yl)-4-(trifluoromethyl)benzamide] | 5.8
24 | Cc1ccc([C@@H](Oc2ccc3c(cnn3-c3ccc(F)cc3)c2)[C@H](C)NC(=O)C2(C)CC2)c(C)c1 [Example 216, N-[(1R,2S)-1-(2,4-dimethylphenyl)-1-[1-(4-fluorophenyl)indazol-5-yl]oxy-propan-2-yl]-1-methyl-cyclopropane-1-carboxamide] | 4.7
